In data set [1] the target is S-ACE2 interaction (SARS-CoV-2 S protein trimer, Wuhan strain, with biotinylated-ACE2) (Severe acute respiratory syndrome coronavirus 2, UniProt P0DTC2). Put plainly: biochemical. Particulars: for inhibition of the S-ACE2 interaction: 200 μM. The class given is binding.
The test system of data set [2] is RBD-ACE2 binding. Particulars: ref not given, cited from earlier work.
The test system of data set [3] is SARS-CoV-2 original Wuhan strain (INMI1 P4) in Vero E6 cells. Put plainly: microbe, parasite or virus in culture. Format: cell-based. Particulars: for inhibition at 22 µM: Severe acute respiratory syndrome coronavirus 2, Vero C1008; for inhibition at 22 µM / inhibition at 33 µM: read-out: inhibition of viral induced CPE; for inhibition at 33 µM: Severe acute respiratory syndrome coronavirus 2, Vero C1008, 72 h.

Data set [4] in a line: in vitro. As to conditions: African green monkey.
The subject of data set [5] is Vero E6 cells. Particulars: 200 μM.
The test system of data set [6] is SARS-CoV-2 Wuhan strain. Format: cell-based.
The subject of data set [7] is SARS-CoV-2 Wuhan strain. Format: cell-based. The source holds these as a separate data set.

Each structure is given as a SMILES string.

The compound `CCCCC/C=C\C/C=C\CCCCCCCC(=O)O` [LA, linoleic acid, reference compound] had an inhibition at 200 µM in data set [1] of 84%. In addition, the “inhibition of the RBD-ACE2 binding” value in data set [2] (8.9 mM, in vitro assays) was 100%.
In data set [1], `CCCCCCCCCCCCCCCC(=O)NCCO` [PEA, palmitoylethanolamide, reference compound] returned an inhibition at 200 µM of 17%. Moreover, the “reduction of RBD binding with ACE2” value in data set [2] was approximately 50%.
As to `CC(=O)c1ccc(N2CCN(Cn3nc4cc(C)c5ccccc5n4c3=S)CC2)cc1` [compound 1], the inhibition at 22 µM in data set [3] amounted to 10%.
Regarding `CCn1c2ccccc2c2cc(NC(=O)c3ccc(OCC(N)=O)cc3)ccc21` [compound 4], in data set [1], the inhibition at 200 µM stood at 28%. The “reduction in viral induced CPE” value in data set [3] (67 μM) is given as “over 10%”.
In data set [1], `CS(=O)(=O)N1CCCc2cc(-c3csc(-c4cccc(C(N)=O)c4)n3)ccc21` [compound 7] returned an inhibition at 200 µM of 20%.
Still for that read-out and setting: the figure for `O=C(CCc1nc2ccccc2s1)N1CCC(CCc2ccc(O)cc2)CC1` [compound 9] is 20%.
With `O=C(Nc1nc(-c2ccc3c(c2)CCC3)cs1)c1ccc(CSc2nnc[nH]2)cc1` [compound 12], the “inhibition of the S-ACE2 interaction” value in data set [1] is on record as “surpassed PEA”.
As for `Cc1cccc(OCC(=O)N2CC=C(c3c[nH]c4ccccc34)CC2)c1C` [compound 15], in data set [1], the inhibition at 200 µM is 20%. Further, in data set [3], the inhibition at 22 µM is 10%.
Consider `CC(NC(=O)CCC(=O)N1CCC(c2ccccc2)=N1)c1ccc(-n2cncn2)cc1` (stereo not shown) [compound 17], for which, in data set [1], the inhibition at 200 µM is approximately 20% and the “inhibition of the S-ACE2 interaction” value is “surpassed PEA”. Moreover, the “reduction in viral induced CPE” value in data set [3] (2.5 μM) is listed as “over 10%”. In data set [3], the inhibition at 33 µM was 23%. The CC50 in data set [4] came out at 90 µM. In addition, the cytotoxicity result in data set [5] is “strong cytotoxicity”. In data set [6], the “decrease in the number of infectious virions released” value is 81%.
In the case of `Cc1nc(-c2ccc(C(C)NC(=O)CCC(=O)N3CCC(c4ccccc4)=N3)cc2)cs1` (stereo not shown) [compound 20], the inhibition at 33 µM in data set [3] came out at 34%.
For the compound `Cc1ccc(C(C)N(C)C(=O)CCC(=O)N2CCC(c3ccccc3)=N2)cc1` (stereo not shown) [compound 27], the “antiviral activity (qualitative structure-activity relationship, CPE)” value in data set [3] is “activity maintained”.
For `CC(NC(=O)CCC(=O)N1CCN(c2ccccc2)CC1)c1ccc(-n2cncn2)cc1` (stereo not shown) [compound 31], in data set [3], the inhibition at 33 µM is 8%.
On to `CC(NC(=O)CCC(=O)N1CCC(c2ccccc2)=N1)c1ccc(-c2ccccc2)cc1` (stereo not shown) [compound 32], for which the inhibition at 33 µM in data set [3] was found to be 27%.
Same read-out and setting: the figure for `CC(OC(=O)CCC(=O)N1CCC(c2ccccc2)=N1)c1ccc(-n2cncn2)cc1` (stereo not shown) [compound 34] is 19%.
On the same count and under the same terms, as for `N#Cc1ccc(C2(NC(=O)CCC(=O)N3CCC(c4ccccc4)=N3)CC2)cc1` [compound 35], the figure is 16%.
`CC(c1ccc(-n2cncn2)cc1)N(C)C(=O)CCC(=O)N1CCC(c2ccccc2)=N1` (stereo not shown) [compound 36]: the inhibition at 33 µM in data set [3] was 91%. The EC50 in data set [3] (Severe acute respiratory syndrome coronavirus 2, Vero C1008, read-out: EC50 (inhibition of SARS-CoV-2-induced CPE)) was found to be 0.29 µM. For the same compound, the “detected viral genomic copies” value in data set [7] stood at 16.9 copies/20 μL. The “reduction in number of viral genome copies in the supernatant” value in data set [7] (33 μM) stood at 89%. For the same compound, in data set [6], the “PFU/mL, drug” value is on record as 2.49 × 10^7 PFU/mL and the “reduction of replication-capable lytic virions (TCID50)” value came out at 90%.

(Values after publication PMC12177760, “In Silico Discovery of a Novel Antiviral Scaffold for SARS-CoV‑2 Targeting the Spike Glycoprotein through the Fatty Acid Binding Pocket” (ACS Omega, 2025).)
